From patent US20250002475A1 (EPICS THERAPEUTICS, priority 2023, published 2025)
pIC50: −log10 of the molar value.

Assays:
[1] = target: T1, recombinant METTL3/METTL14 complex (Homo sapiens, UniProt Q86U44); experiment: METTL3/14 Scintillation Proximity Assay (SPA), RNA methyltransferase activity; assay type: biochemical; details: 5.31 nM METTL3/14 complex, 250 nM RNA substrate, 1 μM 3H-SAM, 90 min; for compounds marked * best of the two separated forms
T1 construct: purchased Active Motif 311970; host or cells: Sf9 cells

Caov-3 cells = experiment: Caov-3 cellular viability assay (ATP-Lite, 72 h); assay type: cell-based; details: Homo sapiens, ATP-Lite luminescence, % viability relative to DMSO
Procedure, shortened: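 10000 cells/well treated 72 h at 37 °C, 5% CO2, in RPMI-1640 with 10% FBS and 0.1% DMSO final. Viability by ATP-Lite One Step luminescence. Expressed as % of DMSO control, with IC50 from each compound's concentration-response curve.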

Kasumi-1 cells = experiment: Kasumi-1 cellular viability assay (ATP-Lite, 72 h); assay type: cell-based; details: Homo sapiens, ATP-Lite luminescence, % viability relative to DMSO
Procedure, shortened: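 Kasumi-1 AML cells, 15000/well in RPMI-1640 with 10% FBS, were exposed to compound titrations (0.1% final DMSO) for 72 h at 37 °C, 5% CO2. ATP-Lite One Step luminescence gave % viability versus DMSO control, and IC50 came from the concentration-response.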

T1 sequence (Q86U44 whole entry): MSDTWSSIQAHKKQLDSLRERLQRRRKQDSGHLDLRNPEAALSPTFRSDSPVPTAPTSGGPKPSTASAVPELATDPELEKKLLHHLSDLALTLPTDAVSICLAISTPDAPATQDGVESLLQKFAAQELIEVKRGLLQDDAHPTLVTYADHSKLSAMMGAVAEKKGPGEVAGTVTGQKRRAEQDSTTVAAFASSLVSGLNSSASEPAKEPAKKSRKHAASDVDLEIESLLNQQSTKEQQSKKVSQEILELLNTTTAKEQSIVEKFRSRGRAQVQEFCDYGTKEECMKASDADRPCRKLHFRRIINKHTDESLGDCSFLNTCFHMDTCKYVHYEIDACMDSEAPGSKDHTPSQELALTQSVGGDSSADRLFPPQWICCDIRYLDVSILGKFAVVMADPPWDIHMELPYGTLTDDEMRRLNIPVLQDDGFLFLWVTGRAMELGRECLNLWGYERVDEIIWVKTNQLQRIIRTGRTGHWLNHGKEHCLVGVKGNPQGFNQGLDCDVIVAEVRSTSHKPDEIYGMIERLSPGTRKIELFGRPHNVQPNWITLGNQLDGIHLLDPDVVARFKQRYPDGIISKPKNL
T1 sequence (Q9HCE5 whole entry partner): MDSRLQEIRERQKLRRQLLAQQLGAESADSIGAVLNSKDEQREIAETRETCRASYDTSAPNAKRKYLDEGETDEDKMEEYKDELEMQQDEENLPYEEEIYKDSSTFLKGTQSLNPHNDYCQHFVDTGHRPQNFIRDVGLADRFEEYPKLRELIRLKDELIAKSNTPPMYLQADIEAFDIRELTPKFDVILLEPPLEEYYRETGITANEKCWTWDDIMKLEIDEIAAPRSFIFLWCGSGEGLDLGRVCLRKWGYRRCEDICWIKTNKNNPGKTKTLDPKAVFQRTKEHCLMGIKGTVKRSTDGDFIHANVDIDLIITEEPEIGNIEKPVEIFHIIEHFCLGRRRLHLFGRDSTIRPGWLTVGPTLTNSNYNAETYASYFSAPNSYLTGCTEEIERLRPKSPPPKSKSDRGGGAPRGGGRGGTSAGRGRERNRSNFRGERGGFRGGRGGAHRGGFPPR

Row | SMILES | pIC50 [1] | pIC50 (Caov-3 cells) | pIC50 (Kasumi-1 cells)
1 | c1ncc(N2CCCC2)cc1-c1cn(C2(c3ccc(N4CCC[C@@H](NCC5CC5)C4)nc3)COC2)nn1 [Compound 223, (R)-N-(cyclopropylmethyl)-1-(5-(3-(4-(5-(pyrrolidin-1-yl)pyridin-3-yl)-1H-1,2,3-triazol-1-yl)oxetan-3-yl)pyridin-2-yl)piperidin-3-amine] | ≥ 7.30 | ≥ 6.30 | ≥ 6.30
2 | CC(c1nnc(-c2cncc(N3CCCC3)n2)s1)n1ccc(N2CCC[C@@H](NCC3CC3)C2)cc1=O (stereo partly drawn) [Compound 228, 4-((R)-3-((cyclopropylmethyl)amino)piperidin-1-yl)-1-(1-(5-(6-(pyrrolidin-1-yl)pyrazin-2-yl)-1,3,4-thiadiazol-2-yl)ethyl)pyridin-2(1H)-one] | ≥ 7.30 | ≥ 6.30 | ≥ 6.30
3 | CC(c1nnc(-c2cncc(N(C)C)n2)s1)n1ccc(N2CCC[C@@H](NCC3CC3)C2)cc1=O (stereo partly drawn) [Compound 231, 4-((R)-3-((cyclopropylmethyl)amino)piperidin-1-yl)-1-(1-(5-(6-(dimethylamino)pyrazin-2-yl)-1,3,4-thiadiazol-2-yl)ethyl)pyridin-2(1H)-one] | ≥ 7.30 | ≥ 6.30 | ≥ 6.30
4 | CC(c1cnc(-c2cncc(N3CCCC3)n2)s1)n1ccc(N2CCC[C@@H](NCC3CC3)C2)cc1=O (stereo partly drawn) [Compound 233, 4-((R)-3-((cyclopropylmethyl)amino)piperidin-1-yl)-1-(1-(2-(6-(pyrrolidin-1-yl)pyrazin-2-yl)thiazol-5-yl)ethyl)pyridin-2(1H)-one] | ≥ 7.30 | ≥ 6.30 | ≥ 6.30
5 | CC(n1cc(-c2cncc(N3CCC4(CC4)C3)n2)nn1)n1ccc(N2CCC[C@@H](NCC3CC3)C2)cc1=O (stereo partly drawn) [Compound 235, 1-(1-(4-(6-(5-azaspiro[2.4]heptan-5-yl)pyrazin-2-yl)-1H-1,2,3-triazol-1-yl)ethyl)-4-((R)-3-((cyclopropylmethyl)amino)piperidin-1-yl)pyridin-2(1H)-one] | ≥ 7.30 | ≥ 6.30 | ≥ 6.30
6 | O=C(Nc1cc(=O)n2ccccc2n1)C1(c2ccc(N3CCC[C@@H](NCC4CCC4)C3)cn2)COC1 [Compound 239, (R)-3-(5-(3-((cyclobutylmethyl)amino)piperidin-1-yl)pyridin-2-yl)-N-(4-oxo-4H-pyrido[1,2-a]pyrimidin-2-yl)oxetane-3-carboxamide] | ≥ 7.30 | ≥ 6.30 | ≥ 6.30
7 | C[C@@H]1CCN(c2cncc(-c3cn(C4(c5ccc(N6CCC[C@@H](NCC7CC7)C6)cn5)COC4)nn3)n2)C1 [Compound 244, (R)-N-(cyclopropylmethyl)-1-(6-(3-(4-(6-((R)-3-methylpyrrolidin-1-yl)pyrazin-2-yl)-1H-1,2,3-triazol-1-yl)oxetan-3-yl)pyridin-3-yl)piperidin-3-amine] | ≥ 7.30 | ≥ 6.30 | ≥ 6.30
8 | O=C(Nc1cncc(N2CCCC2)n1)C1(c2ccc(N3CCC[C@@H](NCC4CC4)C3)cn2)COC1 [Compound 248, (R)-3-(5-(3-((cyclopropylmethyl)amino)piperidin-1-yl)pyridin-2-yl)-N-(6-(pyrrolidin-1-yl)pyrazin-2-yl)oxetane-3-carboxamide] | ≥ 7.30 | ≥ 6.30 | ≥ 6.30
9 | COc1cncc(-c2cn(C3(c4ccc(N5CCC[C@@H](NCC6CC6)C5)cn4)COC3)nn2)c1 [Compound 249, (R)-N-(cyclopropylmethyl)-1-(6-(3-(4-(5-methoxypyridin-3-yl)-1H-1,2,3-triazol-1-yl)oxetan-3-yl)pyridin-3-yl)piperidin-3-amine] | ≥ 7.30 | ≥ 6.30 | ≥ 6.30
10 | c1cc(C2(n3cnc(-c4cncc(N5CCCC5)n4)c3)COC2)ncc1N1CCC[C@@H](NCC2CC2)C1 [Compound 250, (R)-N-(cyclopropylmethyl)-1-(6-(3-(4-(6-(pyrrolidin-1-yl)pyrazin-2-yl)-1H-imidazol-1-yl)oxetan-3-yl)pyridin-3-yl)piperidin-3-amine] | ≥ 7.30 | ≥ 6.30 | ≥ 6.30
11 | c1ncc(C2CC2)cc1-c1cn(C2(c3ccc(N4CCC[C@@H](NCC5CC5)C4)cn3)COC2)nn1 [Compound 256, (R)-N-(cyclopropylmethyl)-1-(6-(3-(4-(5-cyclopropylpyridin-3-yl)-1H-1,2,3-triazol-1-yl)oxetan-3-yl)pyridin-3-yl)piperidin-3-amine] | ≥ 7.30 | ≥ 6.30 | ≥ 6.30
12 | CC(c1ccc(N2CCC[C@@H](NCC3CCC3)C2)nn1)n1cc(-c2cncc(N3CCCC3)c2)nn1 (stereo partly drawn) [Compound 257, (3R)—N-(cyclobutylmethyl)-1-(6-(1-(4-(5-(pyrrolidin-1-yl)pyridin-3-yl)-1H-1,2,3-triazol-1-yl)ethyl)pyridazin-3-yl)piperidin-3-amine] | ≥ 7.30 | ≥ 6.30 | ≥ 6.30
13 | O=C(Nc1cncc(N2CCCC2)n1)C1(c2ccc(N3CCC[C@@H](NCC4CCC4)C3)cn2)COC1 [Compound 262, (R)-3-(5-(3-((cyclobutylmethyl)amino)piperidin-1-yl)pyridin-2-yl)-N-(6-(pyrrolidin-1-yl)pyrazin-2-yl)oxetane-3-carboxamide] | ≥ 7.30 | ≥ 6.30 | ≥ 6.30
14 | O=C(Nc1cc(=O)n2ccccc2n1)C1(c2ccc(N3CCC[C@@H](NCC45CC(F)(C4)C5)C3)cn2)COC1 [Compound 263, (R)-3-(5-(3-(((3-fluorobicyclo[1.1.1]pentan-1-yl)methyl)amino)piperidin-1-yl)pyridin-2-yl)-N-(4-oxo-4H-pyrido[1,2-a]pyrimidin-2-yl)oxetane-3-carboxamide] | ≥ 7.30 | ≥ 6.30 | ≥ 6.30
15 | COc1cncc(-c2cn(C3(c4ccc(N5CCC[C@@H](NCC6CCC6)C5)cn4)COC3)cn2)c1 [Compound 267, (R)-N-(cyclobutylmethyl)-1-(6-(3-(4-(5-methoxypyridin-3-yl)-1H-imidazol-1-yl)oxetan-3-yl)pyridin-3-yl)piperidin-3-amine] | ≥ 7.30 | 5.30 to 6.30 | 5.30 to 6.30
16 | O=C(Nc1cncc(C2CCCC2)n1)C1(c2ccc(N3CCC[C@@H](NCC4CCC4)C3)cn2)COC1 [Compound 268, (R)-3-(5-(3-((cyclobutylmethyl)amino)piperidin-1-yl)pyridin-2-yl)-N-(6-cyclopentylpyrazin-2-yl)oxetane-3-carboxamide] | ≥ 7.30 | 5.30 to 6.30 | 5.30 to 6.30
17 | O=C(Nc1cncc(N2CCCC2)n1)C1(c2ccc(N3CCC[C@@H](NCC45CC(F)(C4)C5)C3)cn2)COC1 [Compound 269, (R)-3-(5-(3-(((3-fluorobicyclo[1.1.1]pentan-1-yl)methyl)amino)piperidin-1-yl)pyridin-2-yl)-N-(6-(pyrrolidin-1-yl)pyrazin-2-yl)oxetane-3-carboxamide] | ≥ 7.30 | ≥ 6.30 | ≥ 6.30
18 | O=C(Nc1cncc(N2CC3CC3C2)n1)C1(c2ccc(N3CCC[C@@H](NCC4CCC4)C3)cn2)COC1 (stereo partly drawn) [Compound 270, N-(6-(3-azabicyclo[3.1.0]hexan-3-yl)pyrazin-2-yl)-3-(5-((R)-3-((cyclobutylmethyl)amino)piperidin-1-yl)pyridin-2-yl)oxetane-3-carboxamide] | ≥ 7.30 | ≥ 6.30 | ≥ 6.30
19 | CN(CC1CCC1)[C@@H]1CCCN(c2ccc(C3(C(=O)Nc4cc(=O)n5ccccc5n4)COC3)nc2)C1 [Compound 272, (R)-3-(5-(3-((cyclobutylmethyl)(methyl)amino)piperidin-1-yl)pyridin-2-yl)-N-(4-oxo-4H-pyrido[1,2-a]pyrimidin-2-yl)oxetane-3-carboxamide] | ≥ 7.30 | 5.30 to 6.30 | 5.30 to 6.30
20 | COc1cncc(-c2cn(C(C)c3ccc(N4CCC[C@@H](NCC5CCC5)C4)cn3)cn2)c1 (stereo partly drawn) [Compound 276, (3R)—N-(cyclobutylmethyl)-1-(6-(1-(4-(5-methoxypyridin-3-yl)-1H-imidazol-1-yl)ethyl)pyridin-3-yl)piperidin-3-amine] | ≥ 7.30 | ≥ 6.30 | 5.30 to 6.30
21 | O=C(Nc1cc(=O)n2ccccc2n1)C1(c2ccc(N3CCC[C@@H](NCC4CCC4)C3)cc2)COC1 [Compound 278, (R)-3-(4-(3-((cyclobutylmethyl)amino)piperidin-1-yl)phenyl)-N-(4-oxo-4H-pyrido[1,2-a]pyrimidin-2-yl)oxetane-3-carboxamide] | ≥ 7.30 | ≥ 6.30 | ≥ 6.30
22 | CC(C(=O)Nc1cncc(N2CCCC2)n1)c1ccc(N2CCC[C@@H](NCC3CCC3)C2)nn1 (stereo partly drawn) [Compound 279, 2-(6-((R)-3-((cyclobutylmethyl)amino)piperidin-1-yl)pyridazin-3-yl)-N-(6-(pyrrolidin-1-yl)pyrazin-2-yl)propanamide] | ≥ 7.30 | 5.30 to 6.30 | 5.30 to 6.30
23 | CC(c1ccc(N2CCC[C@@H](NCC3CCC3)C2)cn1)n1cc(-c2cncc(N3CCCC3)n2)nn1 (stereo partly drawn) [Compound 280, (3R)—N-(cyclobutylmethyl)-1-(6-(1-(4-(6-(pyrrolidin-1-yl)pyrazin-2-yl)-1H-1,2,3-triazol-1-yl)ethyl)pyridin-3-yl)piperidin-3-amine] | ≥ 7.30 | ≥ 6.30 | ≥ 6.30
24 | O=C(Nc1cncc(N2CCCC2)n1)C1(c2ccc(N3CCC[C@@H](NCC4CCC4)C3)cc2)COC1 [Compound 281, (R)-3-(4-(3-((cyclobutylmethyl)amino)piperidin-1-yl)phenyl)-N-(6-(pyrrolidin-1-yl)pyrazin-2-yl)oxetane-3-carboxamide] | ≥ 7.30 | ≥ 6.30 | ≥ 6.30
